In this test the test system is P388 leukemia ip, CD2F1 mice, survival T/C. Put plainly: NCI In Vivo Anticancer Drug Screen. Data for tumor model P388 Leukemia (intraperitoneal) in CD2F1 (CDF1) mice. Conditions: endpoint: median survival time, higher = longer survival. The procedure, abridged: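 Mice carrying the transplanted tumor received test compound or vehicle. Survival was recorded in each group, and the value is the treated-group measurement divided by that of the vehicle-treated control group.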

Setting [1] is: dose: 60.0 mg/kg/injection, schedule: Q01DX005 (ip), vehicle: saline with Tween-80.
The mark [2] stands for this setting: dose: 12.5 mg/kg/injection, schedule: Q01DX005 (ip), vehicle: saline.
The mark [3] stands for this setting: dose: 50.0 mg/kg/injection, schedule: Q01DX005 (ip), vehicle: saline with Tween-80.
The mark [4] stands for this setting: dose: 50.0 mg/kg/injection, schedule: Q01DX005 (ip), vehicle: Klucel (hydroxypropylcellulose) (HPC).
The mark [5] stands for this setting: dose: 100.0 mg/kg/injection, schedule: Q01DX005 (ip), vehicle: Klucel (hydroxypropylcellulose) (HPC).
Where [6] appears, read: dose: 200.0 mg/kg/injection, schedule: Q01DX005 (ip), vehicle: Klucel (hydroxypropylcellulose) (HPC).
Where [7] appears, read: dose: 200.0 mg/kg/injection, schedule: Q01DX005 (ip), vehicle: saline with Tween-80.
Setting [8] is: dose: 60.0 mg/kg/injection, schedule: Q01DX005 (ip), vehicle: Klucel (hydroxypropylcellulose) (HPC).
The mark [9] stands for this setting: dose: 120.0 mg/kg/injection, schedule: Q01DX005 (ip), vehicle: Klucel (hydroxypropylcellulose) (HPC).
The mark [10] stands for this setting: dose: 240.0 mg/kg/injection, schedule: Q01DX005 (ip), vehicle: Klucel (hydroxypropylcellulose) (HPC).

Where “and” joins values, the source holds several entries; their conditions need not be identical. Identical values can stand only once. Inconclusive results and toxic doses are left out.

Consider `O=S(=O)(CS(=O)(=O)c1ccc(Cl)c(Cl)c1)c1ccc(Cl)c(Cl)c1`, for which the T/C reads like this: (dose: 60.0 mg/kg/injection, schedule: Q01DX005 (ip), vehicle: Klucel + Tween-80) 94 % of control; (dose: 120.0 mg/kg/injection, schedule: Q01DX005 (ip), vehicle: Klucel + Tween-80) 102 % of control.
`COC1(C)O[C@@]2(C)c3ccccc3C(=O)[C@@]2(c2ccccc2)O1` (some centres not stated): the T/C is, setting by setting: under setting [1], 104 % of control; (dose: 120.0 mg/kg/injection, schedule: Q01DX005 (ip), vehicle: saline with Tween-80) 97 % of control; (dose: 240.0 mg/kg/injection, schedule: Q01DX005 (ip), vehicle: saline with Tween-80) 97 % of control.
In the case of `NC(=S)N1N=C(c2cccc([N+](=O)[O-])c2)CCC1=O`, the T/C by setting is: (dose: 25.0 mg/kg/injection, schedule: Q04DX003 (ip), vehicle: saline with Tween-80) 100 % of control; (dose: 50.0 mg/kg/injection, schedule: Q04DX003 (ip), vehicle: saline with Tween-80) 103 % of control; (dose: 100.0 mg/kg/injection, schedule: Q04DX003 (ip), vehicle: saline with Tween-80) 100 % of control; (dose: 200.0 mg/kg/injection, schedule: Q04DX003 (ip), vehicle: saline with Tween-80) 101 % of control.
For `COc1ccc(/C(=N\O)c2nccc3cc(OC)c(OC)cc23)cc1OC`, the T/C (dose: 15.0 mg/kg/injection, schedule: Q01DX005 (ip), vehicle: saline with Tween-80) was 116 % of control; the T/C (dose: 30.0 mg/kg/injection, schedule: Q01DX005 (ip), vehicle: saline with Tween-80) is 105 % of control; the T/C under setting [1] is 99 % of control and 92 % of control.
In the case of `CCC12NC(=O)NC1(C)NC(=O)N2` (configuration not stated), the T/C runs as follows: (dose: 6.25 mg/kg/injection, schedule: Q01DX009 (ip), vehicle: saline with Tween-80) 91 % of control; (dose: 12.5 mg/kg/injection, schedule: Q01DX009 (ip), vehicle: saline with Tween-80) 91 % of control; (dose: 16.5 mg/kg/injection, schedule: Q01DX009 (ip), vehicle: saline with Tween-80) 100 % of control.
Consider `COc1ccccc1/C=C\C1=CC(=O)CC(c2ccccc2OC)C1C` (configuration not stated), for which the T/C is 104 % of control (dose: 50.0 mg/kg/injection, schedule: Q01DX001 (ip), vehicle: Klucel (hydroxypropylcellulose) (HPC)); 100 % of control (dose: 100.0 mg/kg/injection, schedule: Q01DX001 (ip), vehicle: Klucel (hydroxypropylcellulose) (HPC)); 91 % of control (dose: 200.0 mg/kg/injection, schedule: Q01DX001 (ip), vehicle: Klucel (hydroxypropylcellulose) (HPC)).
On to `CN(CCO)C1=C(N2CC2)C(=O)C(N(C)CCO)=C(N2CC2)C1=O`, for which the T/C is, setting by setting: (dose: 0.4 mg/kg/injection, schedule: Q01DX009 (ip), vehicle: saline) 175 % of control and 194 % of control; (dose: 0.8 mg/kg/injection, schedule: Q01DX009 (ip), vehicle: saline) 194 % of control and 245 % of control; (dose: 1.6 mg/kg/injection, schedule: Q01DX009 (ip), vehicle: saline) 119 % of control and 262 % of control.
Regarding `CCN=C(N)Nc1nc(C)c2cc(Cl)ccc2n1`, the T/C under setting [2] is 104 % of control; the T/C (dose: 25.0 mg/kg/injection, schedule: Q01DX005 (ip), vehicle: saline) is 104 % of control; the T/C under setting [3] is 109 % of control; the T/C (dose: 50.0 mg/kg/injection, schedule: Q01DX005 (ip), vehicle: saline) was 111 % of control.
With `CCOc1ccc(C2c3ccc(OC)cc3OC(C)(C)C2c2ccccc2)cc1[N+](=O)[O-]` (configuration not stated), the T/C was 101 % of control under setting [4], 99 % of control under setting [5] and 95 % of control under setting [6].
`COC(=O)/C=C/N(Cc1ccccc1)/N=N/N(/C=C/C(=O)OC)Cc1ccccc1`: the T/C is, setting by setting: (dose: 6.25 mg/kg/injection, schedule: Q01DX005 (ip), vehicle: saline with Tween-80) 101 % of control; (dose: 12.5 mg/kg/injection, schedule: Q01DX005 (ip), vehicle: saline with Tween-80) 95 % of control; (dose: 25.0 mg/kg/injection, schedule: Q01DX005 (ip), vehicle: saline with Tween-80) 97 % of control; under setting [7], 87 % of control.
Turning to `O=c1[nH]c2ccccc2c2nc(-c3ccccc3)c3ccccc3c12`, the T/C under setting [8] was 96 % of control, the T/C under setting [9] is 86 % of control and the T/C under setting [10] is 91 % of control.
On to `COC(=O)/C(C#N)=C(C)/C=C/c1ccc(OC)cc1`, for which the T/C was 97 % of control (dose: 100.0 mg/kg/injection, schedule: Q04DX003 (ip), vehicle: saline); 92 % of control (dose: 200.0 mg/kg/injection, schedule: Q04DX003 (ip), vehicle: saline); 98 % of control (dose: 400.0 mg/kg/injection, schedule: Q04DX003 (ip), vehicle: saline).
As for `CC(=O)NC[Si](C)(C)C`, the T/C is, setting by setting: (dose: 60.0 mg/kg/injection, schedule: Q01DX005 (ip), vehicle: saline) 93 % of control; (dose: 120.0 mg/kg/injection, schedule: Q01DX005 (ip), vehicle: saline) 96 % of control; (dose: 240.0 mg/kg/injection, schedule: Q01DX005 (ip), vehicle: saline) 103 % of control.
On to `O=C(O)CCC(=O)OC(C1CO1)C(OC(=O)CCC(=O)O)C1CO1` (configuration not stated), for which the T/C was 90 % of control (dose: 2.5 mg/kg/injection, schedule: Q01DX009 (ip), vehicle: saline); 103 % of control (dose: 2.5 mg/kg/injection, schedule: Q01DX009 (ip), vehicle: sodium bicarbonate); 116 % of control (dose: 5.0 mg/kg/injection, schedule: Q01DX009 (ip), vehicle: saline); 101 % of control (dose: 5.0 mg/kg/injection, schedule: Q01DX009 (ip), vehicle: sodium bicarbonate); 120 % of control (dose: 10.0 mg/kg/injection, schedule: Q01DX009 (ip), vehicle: sodium bicarbonate); 153 % of control (dose: 20.0 mg/kg/injection, schedule: Q01DX009 (ip), vehicle: saline). Further, the T/C is 122 % of control (dose: 20.0 mg/kg/injection, schedule: Q01DX009 (ip), vehicle: sodium bicarbonate); 167 % of control (dose: 40.0 mg/kg/injection, schedule: Q01DX009 (ip), vehicle: saline); 206 % of control (dose: 80.0 mg/kg/injection, schedule: Q01DX009 (ip), vehicle: saline); 169 % of control (dose: 80.0 mg/kg/injection, schedule: Q01DX009 (ip), vehicle: sodium bicarbonate); 198 % of control (dose: 160.0 mg/kg/injection, schedule: Q01DX009 (ip), vehicle: sodium bicarbonate); 87 % of control (dose: 320.0 mg/kg/injection, schedule: Q01DX009 (ip), vehicle: saline). Further, under “dose: 320.0 mg/kg/injection, schedule: Q01DX009 (ip), vehicle: sodium bicarbonate”, the T/C was 93 % of control.
For `COc1cc(NC(C)CCCN)c2ncc(Br)cc2c1` (configuration not stated), the T/C was 95 % of control (dose: 6.25 mg/kg/injection, schedule: Q01DX005 (ip), vehicle: saline) and 91 % of control under setting [2].
In the case of `CC(Cc1ccc(O)c(O)c1)C(C)Cc1ccc(O)c(O)c1` (configuration not stated), the T/C was 98 % of control and 106 % of control (dose: 100.0 mg/kg/injection, schedule: Q01DX009 (ip), vehicle: saline); 101 % of control and 102 % of control (dose: 200.0 mg/kg/injection, schedule: Q01DX009 (ip), vehicle: saline); 105 % of control and 94 % of control (dose: 400.0 mg/kg/injection, schedule: Q01DX009 (ip), vehicle: saline); 98 % of control and 90 % of control (dose: 600.0 mg/kg/injection, schedule: Q01DX009 (ip), vehicle: saline).
As for `CCC(=O)Nc1nnc(SCCCCCCCCCCCCSc2nnc(NC(=O)CC)s2)s1`, the T/C by setting is: under setting [4], 96 % of control; under setting [5], 88 % of control; under setting [6], 87 % of control.
With `CC(=O)OC1SCCn2c1nc1ccccc1c2=O` (configuration not stated), the T/C under setting [3] was 106 % of control; the T/C (dose: 100.0 mg/kg/injection, schedule: Q01DX005 (ip), vehicle: saline with Tween-80) was 104 % of control; the T/C under setting [7] was 99 % of control.
On to `Clc1ccc(N2C=Nc3ccc(Cl)cc3C2)cc1`, for which the T/C runs as follows: (dose: 50.0 mg/kg/injection, schedule: Q01DX009 (ip), vehicle: Klucel (hydroxypropylcellulose) (HPC)) 100 % of control; (dose: 100.0 mg/kg/injection, schedule: Q01DX009 (ip), vehicle: Klucel (hydroxypropylcellulose) (HPC)) 97 % of control; (dose: 200.0 mg/kg/injection, schedule: Q01DX009 (ip), vehicle: Klucel (hydroxypropylcellulose) (HPC)) 98 % of control.
Turning to `CCc1c(-c2ccccc2)n[nH]c1-c1[nH]nc(-c2ccccc2)c1CC`, the T/C was 96 % of control under setting [8], 96 % of control under setting [9] and 96 % of control under setting [10].

Source of the values: PubChem BioAssay AID330 (DTP/NCI, 2004).
